SMILES strings stand for the structures.

The conditions of data set [1]: high temperature of 100° C.; cited from earlier work.
Data set [2] can be described thus: Glucose tolerance test after single intake of test substance. Format: in vivo, Mice (C57BL/6J). Particulars: single oral intake 30 or 60 mg/kg, 30 min before oral glucose 1 g/kg; vs control group, at any time. The source says: Evaluation of Action of Isoxanthohumol to Suppress an Increase in Blood Glucose Level by Single Intake
The effect of single intake of isoxanthohumol on the increase in blood glucose level after glucose intake was examined by the following procedure.
Xanthohumol and isoxanthohumol were the standard samples (purity of 95% or higher) obtained in Preparation Example 1. The “Dosage” in the table, indicates the dosage (mg) of the test substance per kg body weight. A dosing solution containing a mixture of the test substance and a solvent was used to administer the test substance. The solvent was a 0.5 wt % sodium carboxymethylcellulose (CMC) aqueous solution. The volume of the dosing solution was 10 mL/kg A 50 wt % glucose aqueous solution was used for glucose intake.
Mice (C57BL/6J, male, 7 weeks of age, CLEA Japan, Inc.) were purchased, and they were quarantined and acclimatized for one week. […] The selected animals were divided into groups (n=9 in each group) in the group structure shown in Table, 1 by the stratified continuous randomization method based on body weight at the end of the acclimatization period.
After grouping, each group was oral administered with the test substance as described in Table 1. […] Soon after blood drawing, the blood glucose level was measured using Glutest Neo Sensor (Sanwa Kagaku Kenkyusho Co., Ltd.). […]

Data set [3] is described as follows: Glucose tolerance test after continuous intake (three weeks) in high-fat diet mouse model. It is filed as in vivo, Mice (C57BL/6J). Particulars: high fat diet mice, oral glucose 1 g/kg, vs high fat diet group. The source says: Evaluation of Action of Isoxanthohumol to Suppress an Increase in Blood Glucose Level by Continuous Intake
The effect of continuous intake of isoxanthohumol on the increase in blood glucose level after glucose intake was studied by the following procedure using a high-fat diet mouse model.
In the table, “Regular diet” is control diet “D12450J” (Research Diets), and “60 kcal % High-fat diet” is very high-fat diet “D12492” (Research Diets); Xanthohumol and isoxanthohumol were the standard samples (purity of 95% or higher) obtained in Preparation Example 1. The “Dosage” in the table indicates the dosage (mg) of the test substance per day per kg body weight. As in Reference Example 1, a dosing solution containing a mixture of the test substance and a solvent (a 0.5 wt % CMC aqueous solution) was used to administer the test substance. The volume of the dosing solution was 10 ml/kg. The amount of the test substance and the volume of the solution were calculated based on the latest body weight on the administration day of the test substance. A 50 wt % glucose aqueous solution was used for glucose intake.
Mice (C57BL/6J, male, 7 weeks of age, CLEA japan, Inc.) were purchased, and they were quarantined and acclimatized for one week. […] The selected animals were divided into groups (n=8 in each group) in the group structure shown in Table 2 by the stratified continuous randomization method based on body weight at the end of the acclimatization period. They were fed with free access to specific basic feed and water. The test substance was orally administered once a day for three weeks.
After fasting for six hours on the last administration day of the test substance, each group was subjected to oral glucose intake to an amount of 1 g per 1 kg body weight, and blood was drawn from the tail vein over time. Soon after blood drawing, the blood glucose level was measured using Glutest Neo Sensor (Sanwa Kagaku Kenkyusho Co., Ltd.).
Statistical processing was performed using Microsoft Office Excel 2003. A significant difference, was tested between the regular diet group and the high fat diet group by Student's t-test (significant level: 1% (p<0.01)). A significant difference was tested between the high fat diet group and each group excluding the regular diet group by Dunnett's multiple comparison test (significant level: 5% (p<0.05)).

For data set [4] the following is noted: high-fat diet mouse model, cited from earlier work.
For data set [5] the following is noted: 10 mg/L mixed in drinking water, long-term breeding, high-fat diet mouse model; cited from earlier work.
In a further data set the test system is 3T3-L1 adipose cells. Particulars: cited from earlier work.
Setting [6] is: 30 mg/kg/day orally once a day for three weeks.
Where [7] appears, read: 60 mg/kg/day orally once a day for three weeks.

For the molecule `COc1cc(O)c(CC=C(C)C)c2c1C(=O)CC(c1ccc(O)cc1)O2` (centres unmarked) [isoxanthohumol], the thermal stability entry in data set [1] is “stable”. Further, the “action to suppress an increase in blood glucose level” value in data set [2] was “did not show a significant action to suppress an increase in blood glucose level”; in data set [3] (setting [6]), “tendency for a suppressed increase in blood glucose level”; in data set [3] (setting [7]), “significant action to suppress an increase in blood glucose level”.

Take `COc1cc(O)c(CC=C(C)C)c(O)c1C(=O)/C=C/c1ccc(O)cc1` [xanthohumol]: the “fasting blood glucose level” value in data set [4] (continuous administration 60 mg/kg/day) was “decreases the fasting blood glucose level”. Moreover, in data set [4] (continuous administration 30 or 60 mg/kg/day), the “fasting blood insulin level” value is listed as “decreases the fasting blood insulin level”. Further, the “action to suppress an increase in blood glucose level” value in data set [2] is on record as “did not show a significant action to suppress an increase in blood glucose level”; in data set [3] (setting [6]), “No significant action to suppress an increase in blood glucose level”; in data set [3] (setting [7]), “No significant action to suppress an increase in blood glucose level”. In addition, in data set [5], the blood glucose level result is listed as “decrease in blood glucose level”. The secretion of adiponectin result with 3T3-L1 adipose cells is given as “promote secretion of adiponectin”.

(Values after patent publication US20210161857A1, “COMPOSITION AND METHOD FOR SUPPRESSING INCREASE IN BLOOD GLUCOSE LEVEL” (SUNTORY HOLDINGS LIMITED, priority 2018, published 2021).)
